The source of these data is US6730480B1, “Sphingosine kinase enzyme” (Johnson & Johnson Pharmaceutical Research and Development …, priority 1999, dated 2004).

Entries after “also recorded” stand apart in the source; their conditions may differ.

The target of test [1] is T1, native sphingosine kinase (human placenta SK1) (Homo sapiens, UniProt Q9NYA1).
T1 construct: from tissue; host or cells: human placenta
Nature of the test: Sphingosine kinase enzyme assay with native SK purified from human placenta. The test is classed as biochemical. To be noted: for Substrate specificity (phosphorylation by the enzyme): substrates at 100 μM in 0.25% Triton X-100, relative to sphingosine; for Km / Km (mol %): substrate kinetics; for Metal ion requirement (sphingosine kinase activity): metal ions or EDTA at 10 mM; for kcat: Triton X-100 mixed micelles; for Km (mol %): mol % of Triton X-100 (0.25% w/v); for Effect of phospholipid on sphingosine kinase activity: phospholipid at 10 mol% of Triton X-100. The procedure:
Sphingosine kinase activity was routinely determined using D-erythro-sphingosine and [γ^32P]ATP as substrates, essentially as previously described (Olivera et al., 1998) with some modifications. […] Reactions were terminated and sphingosine-1-phosphate extracted by the addition of 700 μl of chloroform/methanol/HCl (100:200:1. v/v), followed by vigorous mixing, addition of 200 μp of chloroform and 200 μl of 2 M KCl, and phase separation by centrifugation. […] Sunnyvale, Calif.). One unit (U) of activity is defined as 1pmol of S1P formed per minute. […] Similarly, thermal stabilities were determined by assaying the residual activity after pre-incubation of the enzymes at various temperatures (4-80° C.) for 30 min at pH 7.4 (50 mM Tris/HCl containing 10% glycerol, 0.5 M NaCl and 0.05% Triton X-100). Substrate kinetics were analysed using Michaelis-Menten kinetics with a weighted non-linear regression program (Easterby, 1996). […] In both cases the data were analysed by non-linear regression. The effect of metal ions on the activity of the native and recombinant sphingosine kinases were determined by assaying the activity under standard conditions in the presence of various metal ions or EDTA at 10 mM. […] PC, phosphatidylcholine; PS phosphatidylserine; PE, […]; PI, phosphatidylinositol.

The target in test [2] is T2, recombinant human sphingosine kinase (Homo sapiens, UniProt Q9NYA1).
T2 construct: The full length SPHK cDNA cloned into pGEX4T2 was transformed into E. coli BL21; GST (N, cleaved yes); made in house; host or cells: E. coli BL21
Nature of the test: Sphingosine kinase enzyme assay with recombinant human SK expressed in E. coli. The test is classed as biochemical. The conditions noted are these: for Substrate specificity (phosphorylation by the enzyme): substrates at 100 μM in 0.25% Triton X-100, relative to sphingosine; for Km / Km (mol %): substrate kinetics; for Metal ion requirement (sphingosine kinase activity): metal ions or EDTA at 10 mM; for kcat: Triton X-100 mixed micelles; for Km (mol %): mol % of Triton X-100 (0.25% w/v); for Effect of phospholipid on sphingosine kinase activity: phospholipid at 10 mol% of Triton X-100. The procedure:
Sphingosine kinase activity was routinely determined using D-erythro-sphingosine and [γ^32P]ATP as substrates, essentially as previously described (Olivera et al., 1998) with some modifications. […] Reactions were terminated and sphingosine-1-phosphate extracted by the addition of 700 μl of chloroform/methanol/HCl (100:200:1. v/v), followed by vigorous mixing, addition of 200 μp of chloroform and 200 μl of 2 M KCl, and phase separation by centrifugation. […] Sunnyvale, Calif.). One unit (U) of activity is defined as 1pmol of S1P formed per minute. The full length SPHK cDNA cloned into pGEX4[…]. coli BL21. Overnight cultures (100 ml) of transformed isolates were grown with shaking (200 rpm) at 30° C. in Superbroth (20 g/L glucose, 35 g/L tryptone, 20 g/L yeast extract, 5 g/L NaCl, pH 7.5) medium containing ampicillin (100 mg/L). The cultures were diluted 1:20 in fresh medium and grown at 30° C. with shaking to an OD600 of 0.6-0.7. Expression of the glutathione-s-transferase (GST)-coupled sphingosine kinase (GST-SK) was then induced by addition of 0.1 mM isopropyl-β-D-thiogalactoside and further incubation of the cultures at 30° C. for 3 h. After this time the bacterial cells were then harvested by centrifugation at 6,000 g for 20 min at 4° C. and resuspended in 20 ml of buffer B containing 250 mM NaCl. the cells were then lysed with lysozyme at a final concentration of 0.3 mg/ml for 15 min at 25° C. followed by sonication, consisting of three cycles of 20 s ultrasonic pulses followed by one minute cooling. The lysate was then clarified by centrifugation at 50,000 g for 45 min at 4° C., followed by filtrating through 0.22 μm filters. To be filtered supernatant was then incubated with 0.2 volumes of 50% (w/v) glutathione-Sepharose 4B (Pharmacia) that was washed and pro-equilibrated with buffer B, for 60 min at 4° C. with constant mixing. After this time the mixture was poured into a glass chromatography column (10 mm diam.) and the beads (with bound GST-SK) washed with 10 column volumes of buffer B at 4° C. The GST-SK was then eluted from the column in 10 ml of buffer B containing 10 mM reduced glutathione. Cleavage of the GST away from sphingosine kinase was then performed by incubation with 20 μg (30 N.I.H. units) thrombin (Pharmacia) for 3 h at 25° C. The released sphingosine kinase was then purified by application of the cleavage mix to a calmodulin-Sepharose column and then a Mono-Q anion exchange column for the purification of the sphingosine kinase from human placenta. […] Similarly, thermal stabilities were determined by assaying the residual activity after pre-incubation of the enzymes at various temperatures (4-80° C.) for 30 min at pH 7.4 (50 mM Tris/HCl containing 10% glycerol, 0.5 M NaCl and 0.05% Triton X-100). Substrate kinetics were analysed using Michaelis-Menten kinetics with a weighted non-linear regression program (Easterby, 1996). […] In both cases the data were analysed by non-linear regression. The effect of metal ions on the activity of the native and recombinant sphingosine kinases were determined by assaying the activity under standard conditions in the presence of various metal ions or EDTA at 10 mM. […] PC, phosphatidylcholine; PS phosphatidylserine; PE, […]; PI, phosphatidylinositol.

The mark [3] stands for this setting: ADP 0.1 to 5 mM, with respect to ATP.
Setting [4] is: inhibitor 2 to 50 μM, mol % of Triton X-100.
Setting [5] is: listed as N,N,N, -trimethylsphingosinei.

T1 sequence (Q9NYA1 whole entry): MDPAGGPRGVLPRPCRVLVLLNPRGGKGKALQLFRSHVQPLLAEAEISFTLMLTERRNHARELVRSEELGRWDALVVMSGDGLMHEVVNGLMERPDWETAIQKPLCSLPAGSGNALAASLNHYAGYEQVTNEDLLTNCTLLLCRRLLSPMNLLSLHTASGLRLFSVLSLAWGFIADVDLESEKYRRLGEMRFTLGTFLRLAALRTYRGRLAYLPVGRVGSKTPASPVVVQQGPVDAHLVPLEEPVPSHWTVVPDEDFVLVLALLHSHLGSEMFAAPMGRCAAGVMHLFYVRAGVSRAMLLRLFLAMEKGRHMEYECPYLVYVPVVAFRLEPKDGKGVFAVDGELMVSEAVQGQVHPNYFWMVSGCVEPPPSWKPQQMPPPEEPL
T2 sequence (Q9NYA1 whole entry): as above

As to `CCCCCCCCCCCCCCC[C@H](O)[C@@H](N)CO` (racemic) [DL-threo-dihydrosphingosine], in test [1], the “Inhibition of sphingosine kinase (kind of inhibition)” value (from here on “Inhibition of sphingosine kinase”) is given as “competitive inhibition” and the “Substrate specificity (phosphorylation by the enzyme)” value (shortened to “Substrate specificity”) is given as “not phosphorylated; also recorded: No phosphorylation”. In test [2], the “Inhibition of sphingosine kinase” value was “competitive inhibition” and the “Substrate specificity” value is on record as “not phosphorylated; also recorded: No phosphorylation”.
On to `CCCCCCCC(=O)OC[C@H](CO)OC(=O)CCCCCCC` [1,2-dioctanoyl-sn-glycerol], for which the “Substrate specificity” value in test [1] and in test [2] was “not phosphorylated; also recorded: No phosphorylation” throughout.
For the compound `CCCCCCCC/C=C\CCCCCCCC(=O)OC[C@H](CO)OC(=O)CCCCCCC/C=C\CCCCCCCC` [1,2-dioleoyl-sn-glycerol], the “Substrate specificity” value in test [1] and in test [2] was “not phosphorylated; also recorded: No phosphorylation” throughout.
As for `Nc1ncnc2c1ncn2[C@@H]1O[C@H](COP(=O)(O)OP(=O)(O)O)[C@@H](O)[C@H]1O` [ADP], the “Inhibition of sphingosine kinase” value in test [1] and in test [2] was “weak competitive inhibition” each time. For the same compound, the Ki is 1100 ± 300 µM in test [1] (setting [3]) and 900 ± 200 µM in test [2] (setting [3]).
For `Nc1ncnc2c1ncn2[C@@H]1O[C@H](COP(=O)(O)OP(=O)(O)OP(=O)(O)O)[C@@H](O)[C@H]1O` [ATP], the Km was found to be 77 ± 11 µM in test [1] (bulk solution concentration) and 86 ± 12 µM in test [2] (bulk solution concentration).
As to `[Ca+2]` [Ca^2+], the “Metal ion requirement (sphingosine kinase activity)” value (“Metal ion requirement” for short) in test [1] and in test [2] was “only very low activity” each time.
On to `[Cu+2]` [Cu^2−], for which the “Metal ion requirement” value in test [1] and in test [2] was “did not support sphingosine kinase activity” in each case.
Regarding `CCCCCCCCCCCCCCC[C@@H](O)[C@@H](N)CO` [Dihydrosphingosine, D-erythro-dihydrosphingosine], in test [1], the kcat is 35 S^−1, the “Km (mol %)” value is 0.50 ± 0.05 mol % and the “Substrate specificity” value is “greatest activity”. The Km in test [1] (bulk solution concentration) was 20 ± 2 µM. Also, in test [2], the kcat was 76 S^−1, the “Km (mol %)” value came to 0.48 ± 0.05 mol % and the “Substrate specificity” value is on record as “greatest activity”. Also, in test [2] (bulk solution concentration), the Km was 19 ± 2 µM.
Consider `O=C(O)CN(CCN(CC(=O)O)CC(=O)O)CC(=O)O` [EDTA], for which the “Metal ion requirement” value in test [1] and in test [2] was “elimated activity” throughout.
As for `[Fe+2]` [Fe^2+], the “Metal ion requirement” value in test [1] and in test [2] was “did not support sphingosine kinase activity” in each case.
With `CCCC[C@@H](C)[C@@H](OC(=O)C[C@@H](CC(=O)O)C(=O)O)[C@H](C[C@@H](C)C[C@H](O)CCCC[C@@H](O)C[C@H](O)[C@H](C)N)OC(=O)C[C@@H](CC(=O)O)C(=O)O` [Fumosin B1], the “Inhibition of sphingosine kinase” value in test [1] and in test [2] was “No inhibition” throughout.
On to `[Mg+2]` [Mg^2+], for which the “Metal ion requirement” value in test [1] and in test [2] was “highest activity” each time.
In the case of `[Mn+2]` [Mn^2−], the “Metal ion requirement” value in test [1] and in test [2] was “somewhat lower activity” throughout.
Consider `CCCCCCCCCCCCC/C=C/[C@@H](O)[C@H](CO)[N+](C)(C)C` [N,N,N-trimethylsphingosine], for which the “Inhibition of sphingosine kinase” value in test [1] and in test [2] was “competitive inhibition” each time. The values for the Ki in test [1] (bulk solution concentration) and in test [2] (bulk solution concentration) were 4.6 ± 1 µM and 3.8 ± 1 µM, respectively. Further, the “Ki (mol %)” value in test [1] (setting [4]) came to 0.12 ± 0.03 mol %; in test [2] (setting [4]), 0.10 ± 0.02 mol %. For the same compound, the “Substrate specificity” value was “not phosphorylated” in test [1], “No phosphorylation” in test [1] (setting [5]), “not phosphorylated” in test [2] and “No phosphorylation” in test [2] (setting [5]).
On to `CCCCCCCCCCCCC/C=C/[C@@H](O)[C@H](CO)NC(C)=O` [N-acetylsphingosine], for which, in test [1], the “Inhibition of sphingosine kinase” value is “No inhibition” and the “Substrate specificity” value is reported as “not phosphorylated; also recorded: No phosphorylation”. For the same compound, in test [2], the “Inhibition of sphingosine kinase” value is “No inhibition” and the “Substrate specificity” value is on record as “not phosphorylated; also recorded: No phosphorylation”.
Turning to `CCCCCCCCCCCCC/C=C/[C@@H](O)[C@@H](N)CO` [Sphingosine, D-erythro-Sphingosine], in test [1], the kcat turned out to be 50 S^−1, the “Km (mol %)” value stood at 0.35 ± 0.05 mol % and the “Substrate specificity” value is “greatest activity”. Moreover, in test [2], the kcat was 85 S^−1, the “Km (mol %)” value is 0.30 ± 0.07 mol % and the “Substrate specificity” value is reported as “greatest activity”.
On to `[Zn+2]` [ZN^2−], for which the “Metal ion requirement” value in test [1] and in test [2] was “did not support sphingosine kinase activity” each time.
Regarding `CCCCCCCCCCCCCC[C@@H](O)[C@@H](O)[C@@H](N)CO` [phytosphingosine, Phytosphingosine], the “Substrate specificity” value in test [1] and in test [2] was “Low activity” throughout.
Turning to L-α-phosphatidylcholine, the “Effect of phospholipid on sphingosine kinase activity” value in test [1] and in test [2] was “did not result in any detectable differences” each time.
For the compound L-α-phosphatidyldethanolamine, the “Effect of phospholipid on sphingosine kinase activity” value in test [1] and in test [2] was “did not result in any detectable differences” throughout.
Turning to L-α-phosphatidylinositol, the “Substrate specificity” value in test [1] and in test [2] was “not phosphorylated; also recorded: No phosphorylation” in each case.
